How the values were obtained:
[1] = system: Mycobacterium tuberculosis (M. tuberculosis Kurono); test: Antibacterial test (agar dilution method), M. tuberculosis Kurono; format: cell-based; details: Mycobacterium tuberculosis, 336 h; 7H11 agar medium, about 10^6 CFU/mL, 37° C. for 14 days; read-out: Minimum inhibitory concentration (MIC) kurono
[2] = system: Mycobacterium tuberculosis (M. tuberculosis H37Rv); test: Antibacterial test (agar plate dilution method), M. tuberculosis H37Rv; format: cell-based; details: 336 h, 7H11 agar medium, about 10^6 CFU/mL, 37° C. for 14 days, read-out: minimum inhibitory concentration against M. tuberculosis H37Rv

O=C1CCc2c(OC[C@]3(O)CCN(c4ccc(Cl)cc4F)C[C@H]3O)ccc(F)c2N1 [Example 259, 5-{[(3R,4R)-1-(4-Chloro-2-fluorophenyl)-3,4-dihydroxypiperidin-4-yl]methoxy}-8-fluoro-3,4-dihydroquinolin-2(1H)-one]
MIC [1]: < 0.39 µg/mL
MIC [2]: < 0.39 µg/mL

O=C1CCc2c(OC[C@]3(O)CCN(c4c(F)cc(Cl)cc4F)C[C@@H]3F)ccc(F)c2N1 [Example 447, 5-{[(3S,4R)-1-(4-Chloro-2,6-difluorophenyl)-3-fluoro-4-hydroxypiperidin-4-yl]methoxy}-8-fluoro-3,4-dihydroquinolin-2(1H)-one]
melting point: 224 to 225 °C
MIC [1]: < 0.39 µg/mL

O=C1CCc2c(OCC3CCN(c4ncc(Cl)cc4Cl)CC3)ccc(F)c2N1 [Example 399, 5-{[1-(3,5-Dichloropyridin-2-yl)piperidin-4-yl]methoxy}-8-fluoro-3,4-dihydroquinolin-2(1H)-one]
melting point: 194 to 195 °C
MIC [1]: < 0.39 µg/mL

O=c1ccc2c(OCC3(O)CCN(c4ccc(Cl)cc4F)CC3)cccc2[nH]1 [Example 138, 5-{[1-(4-Chloro-2-fluorophenyl)-4-hydroxypiperidin-4-yl]methoxy}quinolin-2(1H)-one]
melting point: 275.7 to 277 °C
MIC [1]: < 0.39 µg/mL

O=C1CCc2c(OC[C@]3(O)CCN(c4c(F)cc(Cl)cc4F)C[C@H]3F)ccc(F)c2N1 [Example 448, 5-{[(3R,4R)-1-(4-Chloro-2,6-difluorophenyl)-3-fluoro-4-hydroxypiperidin-4-yl]methoxy}-8-fluoro-3,4-dihydroquinolin-2(1H)-one]
melting point: 207 to 209 °C
MIC [1]: < 0.39 µg/mL

O=C1CCc2c(OC[C@@]3(O)CCN(c4ccc(Br)cc4F)C[C@H]3O)ccc(Cl)c2N1 [Example 364, 5-{[(3R,4S)-1-(4-Bromo-2-fluorophenyl)-3,4-dihydroxypiperidin-4-yl]methoxy}-8-chloro-3,4-dihydroquinolin-2(1H)-one]
melting point: 185.8 to 186 °C
MIC [1]: < 0.39 µg/mL

O=C1CCc2c(OCC3(O)CCN(c4c(F)cc(Cl)cc4F)CC3)ccc(Cl)c2N1 [Example 102, 8-Chloro-5-{[1-(4-chloro-2,6-difluorophenyl)-4-hydroxypiperidin-4-yl]methoxy}-3,4-dihydroquinolin-2(1H)-one]
melting point: 181 to 181.2 °C
MIC [1]: < 0.39 µg/mL

COCCOc1cc(N2CCC(O)(COc3ccc(Cl)c4c3CCC(=O)N4)CC2)c(F)cc1Cl [Example 175, 8-Chloro-5-({1-[4-chloro-2-fluoro-5-(2-methoxyethoxy)phenyl]-4-hydroxypiperidin-4-yl}methoxy)-3,4-dihydroquinolin-2(1H)-one]
melting point: 143.5 to 145.1 °C
MIC [1]: < 0.39 µg/mL
